The source of these data is ChEMBL document CHEMBL5291721, “A preclinical secondary pharmacology resource illuminates target-adverse drug reaction associations of marketed drugs” (Nat Commun, 2023).

Bounds are passed on as bounds.

The target in assay [1] is T1, Muscarinic acetylcholine receptor M1 (Homo sapiens, UniProt P11229).
T1 sequence (P11229 whole entry): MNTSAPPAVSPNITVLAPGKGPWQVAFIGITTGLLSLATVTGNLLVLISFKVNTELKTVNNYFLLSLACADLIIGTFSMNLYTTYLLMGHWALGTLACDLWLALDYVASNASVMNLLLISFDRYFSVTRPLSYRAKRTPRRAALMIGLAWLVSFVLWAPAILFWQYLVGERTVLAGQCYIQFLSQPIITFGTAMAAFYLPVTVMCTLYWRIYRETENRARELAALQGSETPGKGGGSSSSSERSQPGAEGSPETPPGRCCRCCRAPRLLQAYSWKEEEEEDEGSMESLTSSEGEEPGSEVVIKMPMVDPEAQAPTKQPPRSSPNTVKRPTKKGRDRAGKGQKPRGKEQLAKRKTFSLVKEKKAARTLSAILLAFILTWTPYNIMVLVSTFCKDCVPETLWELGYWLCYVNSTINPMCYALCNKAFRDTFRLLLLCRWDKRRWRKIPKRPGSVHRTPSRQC
The format is functional, cell-based.

Assay [2] concerns the target 5-hydroxytryptamine receptor 2B (Homo sapiens, UniProt P41595). The format is functional, cell-based.
In assay [3] the target is T2, Alpha-1A adrenergic receptor (Homo sapiens, UniProt P35348).
T2 sequence (P35348 whole entry): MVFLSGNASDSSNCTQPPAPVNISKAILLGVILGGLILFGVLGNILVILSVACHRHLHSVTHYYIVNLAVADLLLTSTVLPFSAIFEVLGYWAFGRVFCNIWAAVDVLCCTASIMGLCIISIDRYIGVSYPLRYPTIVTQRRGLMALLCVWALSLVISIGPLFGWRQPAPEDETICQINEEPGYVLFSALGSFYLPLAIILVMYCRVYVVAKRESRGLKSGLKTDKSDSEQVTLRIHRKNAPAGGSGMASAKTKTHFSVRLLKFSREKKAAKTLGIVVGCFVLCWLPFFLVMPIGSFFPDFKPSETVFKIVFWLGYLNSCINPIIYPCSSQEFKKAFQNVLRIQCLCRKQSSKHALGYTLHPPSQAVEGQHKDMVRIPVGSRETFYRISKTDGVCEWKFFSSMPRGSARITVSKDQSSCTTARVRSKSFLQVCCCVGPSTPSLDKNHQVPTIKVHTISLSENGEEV
The format is functional, cell-based.

Assay [4] has as its target T3, Muscarinic acetylcholine receptor M2 (Homo sapiens, UniProt P08172).
T3 sequence (P08172 whole entry): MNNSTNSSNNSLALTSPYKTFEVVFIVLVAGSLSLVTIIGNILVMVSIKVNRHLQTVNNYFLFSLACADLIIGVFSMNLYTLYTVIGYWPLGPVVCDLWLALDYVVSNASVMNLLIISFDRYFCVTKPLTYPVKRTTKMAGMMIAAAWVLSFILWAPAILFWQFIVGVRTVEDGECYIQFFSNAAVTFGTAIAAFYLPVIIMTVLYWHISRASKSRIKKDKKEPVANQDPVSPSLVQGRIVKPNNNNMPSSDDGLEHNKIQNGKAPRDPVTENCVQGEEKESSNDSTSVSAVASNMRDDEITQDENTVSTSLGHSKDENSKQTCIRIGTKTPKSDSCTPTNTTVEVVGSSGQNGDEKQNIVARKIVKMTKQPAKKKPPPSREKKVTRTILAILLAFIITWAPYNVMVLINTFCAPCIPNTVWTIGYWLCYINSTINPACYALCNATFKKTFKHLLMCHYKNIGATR
The format is functional, cell-based.

Assay [5] deals with Muscarinic acetylcholine receptor M3 (Homo sapiens, UniProt P20309).
Assay [6] has as its target Sodium-dependent dopamine transporter (Homo sapiens, UniProt Q01959).
Assay [7] has as its target T1, Muscarinic acetylcholine receptor M1. The format is functional.
For assay [8], the target named is Beta-2 adrenergic receptor (Homo sapiens, UniProt P07550).
Further: assay procedure not described here.

Sequence of 5-hydroxytryptamine receptor 2B (P41595 whole entry): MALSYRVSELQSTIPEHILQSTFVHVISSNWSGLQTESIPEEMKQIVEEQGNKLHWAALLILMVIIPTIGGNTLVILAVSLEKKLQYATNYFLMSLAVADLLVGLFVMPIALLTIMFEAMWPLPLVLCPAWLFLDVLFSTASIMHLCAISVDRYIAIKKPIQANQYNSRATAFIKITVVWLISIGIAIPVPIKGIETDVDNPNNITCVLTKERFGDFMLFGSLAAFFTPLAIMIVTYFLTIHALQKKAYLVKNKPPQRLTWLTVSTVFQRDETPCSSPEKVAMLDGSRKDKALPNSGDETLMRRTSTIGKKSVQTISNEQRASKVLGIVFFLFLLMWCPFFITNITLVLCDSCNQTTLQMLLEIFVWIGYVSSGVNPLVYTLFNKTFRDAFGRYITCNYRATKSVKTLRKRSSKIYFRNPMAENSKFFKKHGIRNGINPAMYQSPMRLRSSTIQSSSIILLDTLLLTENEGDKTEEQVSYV
Sequence of Muscarinic acetylcholine receptor M3 (P20309 whole entry): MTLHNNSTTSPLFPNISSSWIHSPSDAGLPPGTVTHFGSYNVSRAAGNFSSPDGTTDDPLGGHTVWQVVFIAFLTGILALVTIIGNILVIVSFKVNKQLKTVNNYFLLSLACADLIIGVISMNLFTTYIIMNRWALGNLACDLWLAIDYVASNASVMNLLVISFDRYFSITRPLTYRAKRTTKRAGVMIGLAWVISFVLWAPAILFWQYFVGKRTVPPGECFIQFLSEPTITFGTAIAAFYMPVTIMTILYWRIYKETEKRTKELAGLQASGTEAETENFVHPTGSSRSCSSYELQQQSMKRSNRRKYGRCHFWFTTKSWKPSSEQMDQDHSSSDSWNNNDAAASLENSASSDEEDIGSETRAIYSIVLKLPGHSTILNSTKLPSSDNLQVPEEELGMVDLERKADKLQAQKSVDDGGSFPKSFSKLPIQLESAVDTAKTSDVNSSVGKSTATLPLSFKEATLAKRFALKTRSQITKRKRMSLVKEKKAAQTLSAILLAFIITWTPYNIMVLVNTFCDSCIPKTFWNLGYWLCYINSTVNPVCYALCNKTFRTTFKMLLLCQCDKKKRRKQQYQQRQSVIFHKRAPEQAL
Sequence of Sodium-dependent dopamine transporter (Q01959 whole entry): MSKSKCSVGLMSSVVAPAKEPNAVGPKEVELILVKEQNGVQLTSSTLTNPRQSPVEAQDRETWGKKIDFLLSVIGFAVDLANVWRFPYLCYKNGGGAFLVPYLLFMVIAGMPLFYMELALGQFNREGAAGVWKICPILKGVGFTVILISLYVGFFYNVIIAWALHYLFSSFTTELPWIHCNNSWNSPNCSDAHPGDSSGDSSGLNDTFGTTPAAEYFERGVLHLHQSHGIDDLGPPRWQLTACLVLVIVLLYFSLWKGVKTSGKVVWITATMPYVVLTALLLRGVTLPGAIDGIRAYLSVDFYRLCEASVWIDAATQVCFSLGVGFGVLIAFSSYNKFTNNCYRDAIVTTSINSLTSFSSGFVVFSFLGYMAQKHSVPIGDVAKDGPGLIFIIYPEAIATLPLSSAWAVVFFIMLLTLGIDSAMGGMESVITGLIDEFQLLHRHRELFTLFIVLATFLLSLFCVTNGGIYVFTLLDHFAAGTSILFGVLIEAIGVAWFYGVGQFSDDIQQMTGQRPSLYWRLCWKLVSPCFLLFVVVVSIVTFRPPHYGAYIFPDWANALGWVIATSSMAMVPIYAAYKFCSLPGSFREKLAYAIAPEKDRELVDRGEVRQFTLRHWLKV
Sequence of Beta-2 adrenergic receptor (P07550 whole entry): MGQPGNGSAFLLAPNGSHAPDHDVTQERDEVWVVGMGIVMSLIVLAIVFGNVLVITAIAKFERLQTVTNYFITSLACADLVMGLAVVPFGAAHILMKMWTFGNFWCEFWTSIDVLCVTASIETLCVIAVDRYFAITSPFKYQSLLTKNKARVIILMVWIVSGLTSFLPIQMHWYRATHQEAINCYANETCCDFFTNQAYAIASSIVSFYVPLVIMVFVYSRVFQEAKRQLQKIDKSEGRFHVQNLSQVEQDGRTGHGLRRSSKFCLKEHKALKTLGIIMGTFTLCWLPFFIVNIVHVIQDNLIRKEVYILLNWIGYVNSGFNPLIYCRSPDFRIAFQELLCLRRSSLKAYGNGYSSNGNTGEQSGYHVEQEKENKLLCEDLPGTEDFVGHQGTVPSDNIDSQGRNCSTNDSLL

As for `O=c1[nH]c2ccccc2n1CCN1CCN(c2cccc(C(F)(F)F)c2)CC1` [FLIBANSERIN], the AC50 in assay [1] was 10.1 µM; in assay [2] it was above 30 µM; in assay [3] it was 0.391 µM.

Take `O=C(O)[C@H](O)[C@@H](O)[C@H](O)[C@H](O)CO` [GLUCONIC ACID]: the AC50 in assay [1], in assay [2] and in assay [3] was above 30 µM throughout.

As to `N=C(N)NCC1COc2ccccc2O1` (stereo unspecified) [GUANOXAN], the half-maximal activity concentration (AC50) in assay [1] is above 30 µM; in assay [2], above 30 µM; in assay [3], 21.3 µM.

Take `N#Cc1ccnc(N2C(=O)CC[C@H]2C(=O)N(c2cncc(F)c2)[C@H](C(=O)NC2CC(F)(F)C2)c2ccccc2Cl)c1` [IVOSIDENIB]: the concentration at half-maximal activity (AC50) in assay [1], in assay [2] and in assay [3] was above 30 µM each time.

As for `CCCCCCO[C@@H](C)c1cccc(-c2csc(NC(=O)c3cc(Cl)c(/C=C(\C)C(=O)O)c(Cl)c3)n2)c1OC` [LUSUTROMBOPAG], the half-maximal activity concentration (AC50) was above 30 µM in assay [1], above 30 µM in assay [2] and 13.5 µM in assay [3].

Consider `Cc1cc(C)cc(OCC2CNC(=O)O2)c1` (stereo unspecified) [METAXALONE], for which the concentration at half-maximal activity (AC50) in assay [1], in assay [2] and in assay [3] was above 30 µM each time.

For the compound `CO[C@@]1(NC(=O)C(C(=O)O)c2ccc(O)cc2)C(=O)N2C(C(=O)O)=C(CSc3nnnn3C)CO[C@@H]21` (stereo partly specified) [MOXALACTAM], the AC50 in assay [1], in assay [2] and in assay [3] was above 30 µM each time.

On to `CCCCCCCC/C=C\CCCCCCCC(=O)O` [OLEIC ACID], for which the AC50 in assay [1], in assay [2] and in assay [3] was above 30 µM in each case.

`CC1=C(C/C=C(\C)CCC[C@H](C)CCC[C@H](C)CCCC(C)C)C(=O)c2ccccc2C1=O` [PHYTONADIONE]: the AC50 in assay [1], in assay [2] and in assay [3] was above 30 µM each time.

For `NC(=O)C1(N2CCCCC2)CCN(CCCC(=O)c2ccc(F)cc2)CC1` [PIPAMPERONE], the figures for the AC50 in assay [1], in assay [2] and in assay [3] were above 30 µM, above 30 µM and 0.398 µM, respectively.

With `COc1cccc2c1C(=O)c1c(O)c3c(c(O)c1C2=O)C[C@@](O)(C(=O)CO)C[C@@H]3O[C@H]1C[C@H](N)[C@H](O[C@@H]2CCCCO2)[C@H](C)O1` [PIRARUBICIN], the half-maximal activity concentration (AC50) in assay [1] was above 1 µM; in assay [2] it was above 30 µM; in assay [3], above 10 µM.

As for `CC(C)(Oc1ccc(Cl)cc1)C(=O)NC(=O)NCN1CCOCC1` [PLAFIBRIDE], the AC50 in assay [1], in assay [2] and in assay [3] was above 30 µM in each case.

In the case of `CC(C)NC[C@H](O)COc1ccc(O)cc1` [PRENALTEROL], the half-maximal activity concentration (AC50) in assay [1], in assay [2] and in assay [3] was above 30 µM in each case.

Take `CN1CCC(N(Cc2cccs2)c2ccccc2)CC1` [THENALIDINE]: the AC50 in assay [1] was above 30 µM; in assay [2], above 30 µM; in assay [3], 23.5 µM.

As for `Cc1ccc(C(C)C)c(O)c1` [THYMOL], the half-maximal activity concentration (AC50) is above 30 µM in assay [1], above 30 µM in assay [2] and 25.8 µM in assay [3].

In the case of `CN(C)CCN(Cc1ccccc1)c1ccccn1` [TRIPELENNAMINE], the AC50 in assay [4] was above 10 µM; in assay [1], above 30 µM; in assay [5] it was above 30 µM; in assay [2], above 30 µM; in assay [6] it was 1.3 µM; in assay [7] it was above 10 µM. The half-maximal activity concentration (AC50) in assay [8] and in assay [3] was above 30 µM each time.

For `Cc1cccc(C)c1NC(=O)c1cc(S(N)(=O)=O)c(Cl)cc1O` [XIPAMIDE], the AC50 in assay [1], in assay [2] and in assay [3] was above 30 µM throughout.

What is called AC50 is the concentration at which the activity in the assay is half-maximal.
